Results published in ChEMBL document CHEMBL3045655, “Use of structure-based virtual screening in the investigation of novel human sialidase inhibitors” (Med Chem Res, 2010).
Calls of active or inactive are those of the source. The rule behind the calls is not given here.

Legend:
[1] = target: T1, Sialidase-4 (Homo sapiens) (UniProt Q8WWR8); assay: Inhibition of Homo sapiens (human) NEU4 expressed in HEK293 cells using 4MU-NeuAc as substrate at 1 mM after 10 to 30 min by fluorometric analysis
T1 sequence (whole entry): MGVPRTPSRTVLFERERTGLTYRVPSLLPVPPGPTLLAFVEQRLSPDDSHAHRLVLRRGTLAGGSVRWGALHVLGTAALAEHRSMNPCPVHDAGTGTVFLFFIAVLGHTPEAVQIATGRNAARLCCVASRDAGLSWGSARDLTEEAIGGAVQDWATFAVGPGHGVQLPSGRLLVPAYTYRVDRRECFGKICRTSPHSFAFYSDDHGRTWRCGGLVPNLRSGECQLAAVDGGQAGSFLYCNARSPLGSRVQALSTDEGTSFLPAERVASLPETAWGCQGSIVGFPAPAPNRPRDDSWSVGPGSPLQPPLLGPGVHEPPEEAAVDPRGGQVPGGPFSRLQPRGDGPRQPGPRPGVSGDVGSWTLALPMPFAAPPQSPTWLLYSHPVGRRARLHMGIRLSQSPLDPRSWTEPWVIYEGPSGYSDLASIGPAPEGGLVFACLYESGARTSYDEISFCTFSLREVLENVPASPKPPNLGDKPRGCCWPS

[2] = target: T2, Sialidase-3 (Homo sapiens) (UniProt Q9UQ49); assay: Inhibition of Homo sapiens (human) NEU3 expressed in HEK293 cells using mixed ganglioside as substrate at 1 mM after 10 to 30 min by fluorometric analysis; assay type: cell-based
T2 sequence (whole entry): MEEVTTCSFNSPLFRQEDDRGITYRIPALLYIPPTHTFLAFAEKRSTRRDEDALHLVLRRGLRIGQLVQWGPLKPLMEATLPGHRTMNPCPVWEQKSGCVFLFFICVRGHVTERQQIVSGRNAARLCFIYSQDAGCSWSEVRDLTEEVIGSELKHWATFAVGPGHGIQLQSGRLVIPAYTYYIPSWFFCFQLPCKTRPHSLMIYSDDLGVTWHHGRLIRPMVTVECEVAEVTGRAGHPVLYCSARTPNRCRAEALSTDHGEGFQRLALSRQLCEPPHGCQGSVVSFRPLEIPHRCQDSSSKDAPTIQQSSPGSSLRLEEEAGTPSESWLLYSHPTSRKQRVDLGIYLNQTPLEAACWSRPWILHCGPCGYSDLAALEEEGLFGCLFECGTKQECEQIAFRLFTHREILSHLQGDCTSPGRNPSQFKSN

[3] = target: Sialidase-1 (Homo sapiens) (UniProt Q99519); assay: Inhibition of Homo sapiens (human) NEU1 expressed in HEK293 cells using 4MU-NeuAc as substrate at 1 mM after 10 to 30 min by fluorometric analysis; assay type: cell-based
Sialidase-4 = target: T3, Sialidase-4 (Homo sapiens, UniProt Q8WWR8); assay: Inhibition of Homo sapiens (human) NEU4 expressed in HEK293 cells using 4MU-NeuAc as substrate after 10 to 30 min by fluorometric analysis; assay type: cell-based
T3 sequence (Q8WWR8 whole entry): T1 sequence (whole entry)

Sialidase-3 = target: T4, Sialidase-3 (Homo sapiens, UniProt Q9UQ49); assay: Inhibition of Homo sapiens (human) NEU3 expressed in HEK293 cells using mixed ganglioside as substrate after 10 to 30 min by fluorometric analysis; assay type: cell-based
T4 sequence (Q9UQ49 whole entry): T2 sequence (whole entry)

[4] = target: Sialidase-2 (Homo sapiens) (UniProt Q9Y3R4); details: HEK293, 1 mM
Sialidase-2 (Homo sapiens), sequence (Q9Y3R4 whole entry): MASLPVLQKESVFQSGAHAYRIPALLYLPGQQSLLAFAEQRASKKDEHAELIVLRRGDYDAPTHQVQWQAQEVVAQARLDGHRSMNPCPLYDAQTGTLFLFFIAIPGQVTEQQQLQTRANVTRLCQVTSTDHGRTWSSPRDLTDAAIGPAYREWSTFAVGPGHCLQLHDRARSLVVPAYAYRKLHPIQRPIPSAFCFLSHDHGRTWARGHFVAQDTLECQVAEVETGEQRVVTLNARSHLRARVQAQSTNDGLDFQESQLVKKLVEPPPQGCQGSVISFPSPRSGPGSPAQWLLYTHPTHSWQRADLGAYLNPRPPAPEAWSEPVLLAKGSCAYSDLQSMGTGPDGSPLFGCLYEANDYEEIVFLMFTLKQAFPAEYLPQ
Description: Inhibition of Homo sapiens (human) NEU2 expressed in HEK293 cells using 4MU-NeuAc as substrate at 1 mM after 10 to 30 min by fluorometric analysis

| inhibition [1] | inhibition [2] | inhibition [3] | IC50 (Sialidase-4) | IC50 (Sialidase-3) | inhibition [4] | Compound |
| --- | --- | --- | --- | --- | --- | --- |
| 56% | 56% | 7% | 670 µM | 920 µM | 40% | O=C(O)c1oc(C(=O)O)c(OCc2ccccc2)c1OCc1ccccc1 |
| – | – | – | – | 60 µM | – | CC(=O)N[C@H]1[C@H]([C@@H](O)[C@@H](O)CO)OC(C(=O)O)=C[C@@H]1O |
| – | – | inactive | > 5000 µM | > 5000 µM | – | CC(=O)Nc1cc(F)c(C(=O)O)cc1NC(=O)c1ccc(-c2ccccc2)cc1 |
